Measured values as given in EP1222194B1, “7-ACYLAMINO-3-HETEROARYLTHIO-3-CEPHEM CARBOXYLIC ACID ANTIBIOTICS AND PRODRUGS THEREOF” (priority 1999, dated 2001).
≈ marks a conversion by molar mass, not a printed value.

Experiments:
[1] = tested on: E. coli ATCC25992; experiment: Broth microdilution MIC (NCCLS); type: cell-based; conditions: Escherichia coli, Mueller-Hinton Broth, 24 h at 35 °C
Experimental: (§1) Compounds were evaluated for antimicrobial activity against a panel of bacterial strains using a broth microdilution assay performed as recommended by the NCCLS (1). The minimum inhibitory concentration (MIC) was defined as the lowest concentration of drug which prevented the growth of the bacteria. The following 16 organisms constituted the primary panel of evaluation:
(§2) For this primary panel, the assay was performed in Mueller-Hinton Broth (MHB) with a final bacterial inoculum of 5 x 10^5 CFU/mL (from an early-log phase culture) and a final volume of 100 µL. Control drugs, including imipenem, vancomycin, Penicillin G, dicloxacillin (vs. MSSA ATCC29213 only), and new compounds were prepared at a concentration equivalent to 2-fold the desired final concentration. Dilution of compounds were prepared directly in the plates by serial 2-fold dilution using a multichannel pipette. Positive and negative growth control were included in each plate.
(§3) The bacterial inocula were prepared as follows. For each strain one isolated colony was used to inoculate a volume of 8 mL of Mueller-Hinton broth and these cultures were incubated overnight (20h) at 35 °C in a shaking incubator. At the exception of Enterococcus strains, culture were then diluted 1:10 and allowed to grow for an additional one hour at 35 °C in a shaking incubator. The inocula were prepared by diluting the early log-phase (1h) cultures 1:1000 with fresh Mueller-Hinton broth. E. faecium and E. faecalis were prepared by diluting overnight cultures 1:333 and 1:666, respectively, with fresh Mueller-Hinton broth . A volume of 50 µL of the inocula was added to each well. […] The exact inocula were determined by applying […] of 10-fold serial dilution of the bacterial suspensions on TSA. After overnight incubation at 35 °C, colony forming units were manually counted.
(§4) Microtiter plates were incubated during 24 h at 35 °C and were read using a microtiterplate reader (Molecular Devices) at 650 nm as well as by visual observation using a microtiterplate reading mirror.

[2] = tested on: E. faecalis ATCC 29212; experiment: Broth microdilution MIC (NCCLS); type: cell-based; conditions: Enterococcus faecalis, ATCC29212, Mueller-Hinton Broth, 24 h at 35 °C
Experimental: as §1, §2, §3, §4

[3] = tested on: E. faecium ATCC 35667; experiment: Broth microdilution MIC (NCCLS); type: cell-based; conditions: Enterococcus faecium, ATCC35667, Mueller-Hinton Broth, 24 h at 35 °C
Experimental: as §1, §2, §3, §4

[4] = tested on: E. faecium VanA (Van^R); experiment: Broth microdilution MIC (NCCLS); type: cell-based; conditions: Enterococcus faecium, Mueller-Hinton Broth, 24 h at 35 °C
Experimental: as §1, §2, §3, §4

[5] = tested on: P. aeruginosa ATCC 27853; experiment: Broth microdilution MIC (NCCLS); type: cell-based; conditions: Pseudomonas aeruginosa, ATCC27853, Mueller-Hinton Broth, 24 h at 35 °C
Experimental: as §1, §2, §3, §4

[6] = tested on: S. aureus 76 (Meth^R)(lac^+); experiment: Broth microdilution MIC (NCCLS); type: cell-based; conditions: Staphylococcus aureus, Mueller-Hinton Broth, 24 h at 35 °C
Experimental: as §1, §2, §3, §4

[7] = tested on: S. aureus ATCC 29213; experiment: Broth microdilution MIC (NCCLS); type: cell-based; conditions: Staphylococcus aureus, ATCC29213, Mueller-Hinton Broth, 24 h at 35 °C
Experimental: as §1, §2, §3, §4

[8] = tested on: S. aureus Spain #356 (Meth^R); experiment: Broth microdilution MIC (NCCLS); type: cell-based; conditions: Staphylococcus aureus, Mueller-Hinton Broth, 24 h at 35 °C
Experimental: as §1, §2, §3, §4

[9] = tested on: S. haemolyticus 05 (Meth^R); experiment: Broth microdilution MIC (NCCLS); type: cell-based; conditions: Staphylococcus haemolyticus, Mueller-Hinton Broth, 24 h at 35 °C
Experimental: as §1, §2, §3, §4

[10] = Serum binding determination by ultrafiltration and HPLC; type: in vitro ADME; conditions: human, serum, % of compound bound to serum as determined by HPLC
Experimental: The more accurate measurement of binding of selected cephalosporin compounds was performed using HPLC as described below. […] Serum is placed in a shaking water bath preheated to 37 ± 2 °C for 5 to 10 minutes to heat serum to 37 °C. Serum pH is measured and recorded, while serum is 37 °C using pH paper. Measurements are taken twice, 3 minutes apart. […] After blowing for several minutes, serum is heated to 37 °C and measurements are taken twice, 3 minutes apart using pH paper to determine the pH. Store at 4 °C. The serum is stable for 7 days. Always check the pH before each use. • 2. Before any centrifugation, the centrifuge temperature must be adjusted to 25 ± 2 °C. Preheat the centrifuge by spinning for 45 minutes at the same speed to be used in the assay (1900 g) with two tubes of water in the rotor and the temperature set to 25 °C. When the centrifuge stops immediately check the temperature of the tubes of water with a calibrated thermometer. The temperature of the tubes of water must be 25 ± 2 °C. […] Continue spinning and measuring the temperature and adjusting the setting until the temperature is 25 ± 2 °C. • 3. Prepare blank ultrafiltrate by pipetting blank pH 7.4 serum into an Amicon Centrifree Micropartition devices, centrifuge: fixed angle rotor, 1900 g, 25 °C for 20 minutes. Heat ultrafiltrate in a shaking water bath preheated to 37 °C. Measure ultrafiltrate pH and adjust to the pH of the serum (7.4 ± 0.2). • 4. Pipette 190 ul of blank ultrafiltrate into a set of labeled 1.7 mL polypropylene microfuge tubes for 3 of each level. Pipette 10 µL of the appropriate standard stock 50, 200, 1000 µg/mL to make standards 2.5, 10, and 50 µg/mL respectively. Vortex each tube well. One set of the standard samples are mixed 1:1 with 0.2 M acetic acid and injected onto the HPLC (MSTD). These samples are the membrane standards and will be used to compare to the other standards. Pipette 190 ul of ultrafiltrate and spike with 10 ul of whatever solution (e.g. water) the standards are prepared in to make the zero standard. • 5. Pipette 475 µL of blank heated pH 7.4 serum into a set of labeled 1.7 mL polypropylene microfuge tubes for 2 of each (Serum A and Serum B). Pipette 25 µL of the 1000 µg/mL standard stock into each tube, vortex each tube well to make serum standard 50 µg/mL. Remove 100 µL of serum and deproteinate with 200 µL 4% TCA while vortexing to make serum time 0 (serum 50, T0). Place serum tubes in a shaking water bath at 37 °C for 10 minutes. Pipet 100 µL of serum out and deproteinate with 200 µL 4% TCA, to make serum time 10 min (serum 50, T10). Pipet 200 ul serum standard 50 µg/mL into an ultrafiltration device, which is not treated with TCA, to determine free drug in samples (Rat Serum 50). • 6. Transfer serum and standard samples to labeled Amicon Centrifree Micropartition filters, and centrifuge: 1900 g, 25 °C for 10 minutes. The extracted serum samples (T0 and T 10) are spun down and supernatant is loaded into HPLC vials. • 7. 100 µL of ultrafiltrate sample and 100 µL of 0.2 M acetic acid were mixed together to stabilize the compound in ultrafiltrate. • 8. Transfer entire stabilized ultrafiltrate solution to a labeled autoinjector HPLC vial cap with Teflon septa, and inject on HPLC.
Peak height or area is used in a weighted linear regression.
High levels of binding to human serum proteins limits the concentration of compound available for antibacterial activity in the body.

Structure (SMILES) | MIC [1] | MIC [2] | MIC [3] | MIC [4] | MIC [5] | MIC [6] | MIC [7] | MIC [8] | MIC [9] | fraction unbound [10]
NCCSCc1ccncc1SC1=C(C(=O)O)N2C(=O)[C@@H](NC(=O)/C(=N\O)c3nc(N)sc3Cl)[C@H]2SC1 [Cmpd 3, (7R)-7-[(Z)-2-(2-amino-5-chlorothiazol-4-yl)-2-(hydroxyimino)acetamido]-3-[4-(2-aminoethylthiomethyl)pyrid-3-ylthio]-3-cephem-4-carboxylic acid] | 4 µg/mL (≈ 6.64 µM) | 0.13 µg/mL (≈ 0.216 µM) | 1 µg/mL (≈ 1.66 µM) | 2 µg/mL (≈ 3.32 µM) | 32 µg/mL (≈ 53.1 µM) | 1 µg/mL (≈ 1.66 µM) | 0.13 µg/mL (≈ 0.216 µM) | 1 µg/mL (≈ 1.66 µM) | 2 µg/mL (≈ 3.32 µM) | 0.1
NCCSCc1ncccc1SC1=C(C(=O)O)N2C(=O)[C@@H](NC(=O)/C(=N\O)c3nc(N)sc3Cl)[C@H]2SC1 [Cmpd 1, (7R)-7-[(Z)-2-(2-amino-5-chlorothiazol-4-yl)-2-(hydroxyimino)acetamido]-3-[2-(2-aminoethylthiomethyl)pyrid-3-ylthio]-3-cephem-4-carboxylic acid] | 4 µg/mL (≈ 6.64 µM) | 0.06 µg/mL (≈ 0.0996 µM) | 0.5 µg/mL (≈ 0.83 µM) | 1 µg/mL (≈ 1.66 µM) | 32 µg/mL (≈ 53.1 µM) | 1 µg/mL (≈ 1.66 µM) |  | 1 µg/mL (≈ 1.66 µM) | 1 µg/mL (≈ 1.66 µM) | 0.1
N=C(N)NCCSCc1ncccc1SC1=C(C(=O)O)N2C(=O)[C@@H](NC(=O)/C(=N\O)c3nsc(N)n3)[C@H]2SC1 [Cmpd 2-R, (7R)-7-[(Z)-2-(5-amino-1,2,4-thiadiazol-3-yl)-2-(hydroxyimino)acetamido]-3-[2-(2-guanidinoethylthiomethyl)pyrid-3-ylthio]-3-cephem-4-carboxylic acid] | 1 µg/mL (≈ 1.64 µM) | 1 µg/mL (≈ 1.64 µM) | 0.5 µg/mL (≈ 0.819 µM) | 1 µg/mL (≈ 1.64 µM) | > 32 µg/mL | 1 µg/mL (≈ 1.64 µM) | 0.13 µg/mL (≈ 0.213 µM) | 1 µg/mL (≈ 1.64 µM) | 2 µg/mL (≈ 3.27 µM) | ≥ 0.2
N=C(N)NCCSCc1ncccc1SC1=C(C(=O)O)N2C(=O)[C@@H](NC(=O)/C(=N\O)c3nc(N)sc3Cl)[C@H]2SC1 [Cmpd 2-S, (7R)-7-[(Z)-2-(2-amino-5-chlorothiazol-4-yl)-2-(hydroxyimino)acetamido]-3-[2-(2-guanidinoethylthiomethyl)pyrid-3-ylthio]-3-cephem-4-carboxylic acid] | 4 µg/mL (≈ 6.21 µM) | 0.06 µg/mL (≈ 0.0931 µM) | 0.25 µg/mL (≈ 0.388 µM) | 0.5 µg/mL (≈ 0.776 µM) | > 32 µg/mL | 0.5 µg/mL (≈ 0.776 µM) | 0.13 µg/mL (≈ 0.202 µM) | 0.5 µg/mL (≈ 0.776 µM) | 1 µg/mL (≈ 1.55 µM) | 0.17
NCCSCc1ncccc1SC1=C(C(=O)O)N2C(=O)[C@@H](NC(=O)/C(=N\O)c3nsc(N)n3)[C@H]2SC1 [Cmpd 2, (7R)-7-[(Z)-2-(5-amino-1,2,4-thiadiazol-3-yl)-2-(hydroxyimino)acetamido]-3-[2-(2-aminoethylthiomethyl)pyrid-3-ylthio]-3-cephem-4-carboxylic acid] | 1 µg/mL (≈ 1.76 µM) | 1 µg/mL (≈ 1.76 µM) | 1 µg/mL (≈ 1.76 µM) | 2 µg/mL (≈ 3.52 µM) | > 32 µg/mL | 1 µg/mL (≈ 1.76 µM) |  | 1 µg/mL (≈ 1.76 µM) | 2 µg/mL (≈ 3.52 µM) | ≥ 0.2
